Results on 3 molecules are retold here after patent publication US5994369A, “Substituted piperidine or pyrrolidine compounds for treating sigma-receptor modulated disorders” (Byk Gulden Lomberg Chemische Fabrik GmbH, priority 1995, dated 1999).

One experiment deals with NMDA receptors. Nature of the experiment: NMDA receptor affinity (MK 801 binding). As for the experimental part:
The affinity and selectivity of the compounds described above in greater detail for sigma receptors in comparison with NMDA receptors were determined following published methods (Kornhuber et al.: Eur. J. Pharmacol. 162, 483-490, 1989 and Neurosci. Lett. 163, 129-131, 1993).

The next experiment has as its target Sigma receptors (Homo sapiens, UniProt Q99720). Kind of experiment: Sigma receptor affinity (pentazocine binding).

Chain of Sigma receptors (Q99720 whole entry): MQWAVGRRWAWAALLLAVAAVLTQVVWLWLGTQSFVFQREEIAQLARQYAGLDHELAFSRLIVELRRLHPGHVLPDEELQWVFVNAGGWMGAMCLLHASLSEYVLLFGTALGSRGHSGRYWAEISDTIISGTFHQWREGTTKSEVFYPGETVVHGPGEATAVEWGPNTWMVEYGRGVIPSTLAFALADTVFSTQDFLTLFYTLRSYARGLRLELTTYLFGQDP

Turning to `NC12CC3CC(CC(C3)C1)C2` [Amantadine], the Ki (commonly a dissociation constant, usually derived from enzyme kinetics or from competition with a known ligand) at NMDA receptors came to 10.5 µM.

On to `CC(C)(C)N1CCC(c2ccccc2)(c2ccccc2)CC1` [Budipine, budipine], for which the Ki at Sigma receptors worked out at 2 µM; at NMDA receptors, 11.7 µM.

Take `CC12CC3CC(C)(C1)CC(N)(C3)C2` [Memantine]: the figures for the Ki on Sigma receptors and on NMDA receptors were 20 µM and 0.5 µM, respectively.
